Experimental data: BindingDB's records for doi:10.7270/Q27W69N8 (Srmlsc, 2009)
Structures can show the parent of a compound that is named as a salt.

Target: T1, M17 leucyl aminopeptidase (Plasmodium falciparum (isolate 3D7), UniProt Q8IL11)
T1 sequence (Q8IL11 whole entry): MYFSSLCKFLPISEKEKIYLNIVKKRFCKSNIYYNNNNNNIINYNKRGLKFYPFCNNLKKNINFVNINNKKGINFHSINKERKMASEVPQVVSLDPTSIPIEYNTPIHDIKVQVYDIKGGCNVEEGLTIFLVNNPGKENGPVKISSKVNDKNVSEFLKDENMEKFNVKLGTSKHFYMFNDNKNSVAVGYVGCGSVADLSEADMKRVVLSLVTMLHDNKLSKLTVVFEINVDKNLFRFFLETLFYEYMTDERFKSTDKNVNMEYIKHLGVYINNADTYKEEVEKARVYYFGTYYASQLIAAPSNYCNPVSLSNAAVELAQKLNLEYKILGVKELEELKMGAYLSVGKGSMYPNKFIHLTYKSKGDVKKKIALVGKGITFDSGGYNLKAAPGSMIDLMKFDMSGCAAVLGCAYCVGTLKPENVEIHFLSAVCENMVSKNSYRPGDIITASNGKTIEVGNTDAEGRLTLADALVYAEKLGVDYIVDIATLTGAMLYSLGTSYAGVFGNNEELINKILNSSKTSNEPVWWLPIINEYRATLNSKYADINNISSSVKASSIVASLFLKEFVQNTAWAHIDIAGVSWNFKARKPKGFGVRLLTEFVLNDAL
Test: P. falciparum M17LAP inhibitors, primary screen, biochemical, fluorogenic H-Leu-NHMec substrate, 1536-well (AID 1619)

Compound: O=NCc1cn(CC(=O)N2CCOCC2)c2ccccc12 [2-[3-(hydroxyiminomethyl)indol-1-yl]-1-morpholin-4-ylethanone]
- IC50: 78.9 µM

Compound: O=C1N=c2ccccc2=C1NNc1ccc(C(=O)O)cc1 [4-[2-(2-oxidanylideneindol-3-yl)hydrazinyl]benzoic acid]
- IC50: 84.3 µM

Compound: O=C(Cc1cc(=O)[nH][nH]1)NN=Cc1cccc(Cl)c1Cl
- IC50: 103 µM

Compound: COc1cccc(C=NNC(=O)Cc2c(C)[nH][nH]c2=O)c1O [N'-[(E)-(5-methoxy-6-oxocyclohexa-2,4-dien-1-ylidene)methyl]-2-(3-methyl-5-oxo-1,4-dihydropyrazol-4-yl)acetohydrazide]
- IC50: 92.1 µM

Compound: COc1cc(CN=Nc2ccc(Cl)c(C(=O)O)c2)ccc1OC(=O)c1cccs1
- IC50: 55.5 µM

Compound: N#CC1C(=N)Oc2nc(-c3ccccc3)[nH]c2C1c1cccnc1 (stereo not drawn) [5-amino-2-phenyl-7-pyridin-3-yl-3,7-dihydropyrano[2,3-d]imidazole-6-carbonitrile]
- IC50: 66.6 µM

Compound: Cc1[nH][nH]c(=O)c1CCC(=O)NN=Cc1ccco1
- IC50: 69.2 µM

Compound: CCCOc1ccc(-n2c(O)cc(SCCN)c2O)cc1 [3-(2-aminoethylthio)-1-(4-propoxyphenyl)pyrrolidine-2,5-dione;hydrochloride]
- IC50: 12 µM

Compound: CC(CC1CC(C)(C)OC1=O)N=Nc1nc(-c2ccccc2)cs1 (stereo not drawn) [SMR000220752]
- IC50: 52.8 µM

Compound: Cc1ccc(SCc2n[nH]c3c2C2(CCSCC2)C(C#N)C(=N)O3)cc1 (stereo not drawn) [6-amino-3-[(4-methylphenyl)sulfanylmethyl]spiro[2H-pyrano[2,3-c]pyrazole-4,4'-thiane]-5-carbonitrile]
- IC50: 91 µM

Compound: CC(C=NNC(=O)Cc1c(C)[nH][nH]c1=O)=Cc1ccccc1 [2-(3-methyl-5-oxidanylidene-1,4-dihydropyrazol-4-yl)-N-[[(E)-2-methyl-3-phenyl-prop-2-enylidene]amino]ethanamide]
- IC50: 52.8 µM

Compound: C=CCN1C(=O)/C(=C/c2ccc(OCC(=O)O)cc2)SC1=Nc1nccs1 [2-[4-[(Z)-[4-oxidanylidene-3-prop-2-enyl-2-(1,3-thiazol-2-ylimino)-1,3-thiazolidin-5-ylidene]methyl]phenoxy]ethanoic acid]
- IC50: 18.9 µM

Compound: COc1ccc(NC(=O)CSc2nc(C)cc(=O)[nH]2)cc1 [N-(4-methoxyphenyl)-2-[(4-methyl-6-oxo-5H-pyrimidin-2-yl)sulfanyl]acetamide]
- IC50: 3.09 µM

Compound: O=C1CCCC2=Nc3[nH]c(=S)[nH]c(=O)c3C(c3ccc(Br)cc3)C12 (stereo not drawn) [5-(4-bromophenyl)-2-thioxo-2,3,5,8,9,10-hexahydropyrimido[4,5-b]quinoline-4,6(1H,7H)-dione]
- IC50: 16.7 µM

Compound: C/C(=C\c1ccco1)C1c2c(-c3ccc(C)cc3)n[nH]c2OC(=N)C1C#N (stereo not drawn) [MLS000519110]
- IC50: 132 µM

Compound: COc1cccc(C=NNC(=O)Cc2c(C)[nH][nH]c2=O)c1OC [SMR000147373]
- IC50: 23.5 µM

Compound: COc1cc(CN=Nc2ccc(Cl)c(C(=O)O)c2)ccc1OC(=O)c1ccco1 [2-chloro-5-[2-[[4-[2-furanyl(oxo)methoxy]-3-methoxyphenyl]methylidene]hydrazinyl]benzoic acid]
- IC50: 48.8 µM

Compound: CN(C)c1ccc(/N=N/c2ccccc2C(=O)OCC(=O)N(C)C2CCCCC2)cc1 [[2-[cyclohexyl(methyl)amino]-2-oxidanylidene-ethyl] 2-[[4-(dimethylamino)phenyl]diazenyl]benzoate]
- IC50: 15.2 µM

Compound: CCOc1ccccc1C1c2c(-c3ccccc3)noc2N=C(N)C1C#N (stereo not drawn) [6-amino-4-(2-ethoxyphenyl)-3-phenyl-2,4-dihydroisoxazolo[5,4-b]pyridine-5-carbonitrile]
- IC50: 52.7 µM

Compound: N#CC1C(=N)Oc2[nH]nc(-c3ccc(F)cc3)c2C1c1cccnc1 (stereo not drawn) [MLS000043841]
- IC50: 61.2 µM

Compound: Cc1[nH][nH]c(=O)c1CCC(=O)NN=Cc1ccccc1[N+](=O)[O-]
- IC50: 3.14 µM

Compound: N#CC1C(=N)Oc2[nH]nc(-c3ccccc3)c2C1c1cccnc1 (stereo not drawn) [MLS000030179]
- IC50: 60.4 µM

Compound: Cc1[nH][nH]c(=O)c1CCC(=O)NN=Cc1cccc(Cl)c1 [N'-[(1Z)-(3-chlorophenyl)methylene]-3-(3-methyl-5-oxo-4,5-dihydro-1H-pyrazol-4-yl)propanohydrazide]
- IC50: 20.9 µM

Compound: Cc1cc(-c2n[nH]c3c2C(c2cccc(O)c2)C(C#N)C(=N)O3)c(C)s1 (stereo not drawn) [SMR000136653]
- IC50: 52.8 µM

Compound: Cc1ccc(-c2n[nH]c3c2C(c2ccsc2)C(C#N)C(=N)O3)cc1 (stereo not drawn) [SMR000143666]
- IC50: 11.3 µM

Compound: O=C1c2ccccc2C(=O)C1C1=NC(C(=O)O)c2c1c(O)n(-c1ccccc1)c2O (stereo not drawn) [SMR000168620]
- IC50: 68 µM

Compound: CCCc1[nH]nc2c1C(CCc1ccccc1)C(C#N)C(=N)O2 (stereo not drawn) [6-azanyl-4-(2-phenylethyl)-3-propyl-2,4-dihydropyrano[2,3-c]pyrazole-5-carbonitrile]
- IC50: 55.7 µM

Compound: N#CC1C(=N)Oc2[nH]nc(-c3ccc(F)cc3)c2C1c1ccncc1 (stereo not drawn) [6-amino-3-(4-fluorophenyl)-4-pyridin-4-yl-2,4-dihydropyrano[2,3-c]pyrazole-5-carbonitrile]
- IC50: 94.3 µM

Compound: CN(C)c1ccc(/N=N/c2ccccc2C(=O)OCC(=O)N2CCCC2)cc1 [MLS000374806]
- IC50: 9.23 µM

Compound: CC(=NNC(=O)Cc1c(C)[nH][nH]c1=O)c1ccco1 [MLS000723689]
- IC50: 12.3 µM

Compound: COc1cccc(-c2n[nH]c3c2C(c2ccoc2)C(C#N)C(=N)O3)c1 (stereo not drawn) [MLS000558215]
- IC50: 76.8 µM

Compound: Cc1ccc(SCc2cc(=O)[nH][nH]2)cc1 [5-p-Tolylsulfanylmethyl-2,4-dihydro-pyrazol-3-one]
- IC50: 1.77 µM

Compound: Cc1noc(NS(=O)(=O)c2ccc(N=CCC(=O)c3ccc4c(c3)OCO4)cc2)c1C [4-[[(Z)-3-(1,3-benzodioxol-5-yl)-3-oxoprop-1-enyl]amino]-N-(3,4-dimethyl-5-isoxazolyl)benzenesulfonamide]
- IC50: 13.9 µM
